Measurements reported in ChEMBL document CHEMBL1128794, “Rational design of irreversible, pseudo-C2-symmetric hiv-1 protease inhibitors” (Bioorg Med Chem Lett, 1995).

Assays:
[1] = target: Human immunodeficiency virus type 1 protease (Human immunodeficiency virus 1, UniProt Q72874); assay: Compound was tested for the inhibition activity against HIV-1 protease
[2] = target: Human immunodeficiency virus type 1 protease (Human immunodeficiency virus 1) (UniProt Q72874); assay: Ratio of inactivation constant (Kina) and inhibition constant (Ki) was determined
H9 [3] = assay: Tested for the inhibitory activity against HIV-1 in H-9 cell lines assessed by syncytium formation and reverse transcriptase assay; assay type: functional, cell-based; details: Homo sapiens
SUP-T1 [4] = assay: Tested for the inhibitory activity against HIV-1 in Sup T1 cell lines assessed by syncytium formation and reverse transcriptase assay; assay type: functional, cell-based; details: Homo sapiens
[5] = target: Human immunodeficiency virus type 1 protease (Human immunodeficiency virus 1) (UniProt Q72874); assay: Rate of irreversible inactivation of HIV 1 protease by the compound was determined
H9 [6] = assay: 50% Cytoxic value against HIV-1 in H-9 cell lines was evaluated; assay type: functional, Homo sapiens
H9 [7] = assay: Tested for the inhibitory activity against HIV-1 in H-9 and Sup T1 cell lines assessed by syncytium formation and reverse transcriptase assay; assay type: functional, cell-based; details: Homo sapiens
SUP-T1 [8] = assay: 50% Cytoxic value against HIV-1 in Sup T1 cell lines was evaluated; assay type: functional, Homo sapiens

| SMILES | Ki [1] | K inact/Ki [2] | also measured |
| --- | --- | --- | --- |
| CC(C)[C@H](NC(=O)OCc1ccccc1)C(=O)N[C@@H](Cc1ccccc1)[C@H](O)[C@H](O)[C@H](Cc1ccccc1)NC(=O)[C@@H](NC(=O)OCc1ccccc1)C(C)C | < 1 nM | – | – |
| CC(C)[C@H](NC(=O)N(C)Cc1ccccn1)C(=O)N[C@@H](Cc1ccccc1)[C@@H](O)[C@H](O)[C@H](Cc1ccccc1)NC(=O)[C@@H](NC(=O)N(C)Cc1ccccn1)C(C)C | < 1 nM | – | – |
| CC(C)[C@H](NC(=O)N(C)Cc1ccccn1)C(=O)NC[C@@H]1O[C@@H]1[C@H](Cc1ccccc1)NC(=O)[C@H](NC(=O)N(C)Cc1ccccn1)C(C)C | 16 nM | 367000 M⁻¹ s⁻¹ | – |
| CC(C)[C@H](NC(=O)OCc1ccccn1)C(=O)NC[C@@H]1O[C@@H]1[C@H](Cc1ccccc1)NC(=O)[C@H](NC(=O)OCc1ccccn1)C(C)C | 11 nM | 383000 M⁻¹ s⁻¹ | – |
| CC(C)[C@H](NC(=O)OCc1ccncc1)C(=O)NC[C@@H]1O[C@@H]1[C@H](Cc1ccccc1)NC(=O)[C@H](NC(=O)OCc1ccncc1)C(C)C | 300 nM | 5670 M⁻¹ s⁻¹ | – |
| CC(C)[C@H](NC(=O)OCc1cccnc1)C(=O)NC[C@@H]1O[C@@H]1[C@H](Cc1ccccc1)NC(=O)[C@H](NC(=O)OCc1cccnc1)C(C)C | 70 nM | 23300 M⁻¹ s⁻¹ | – |
| Cc1cn([C@H]2C[C@H](N=[N+]=[N-])[C@@H](CO)O2)c(=O)[nH]c1=O [ZIDOVUDINE] | – | – | IC50 (H9 [3]): 50 nM; IC50 (SUP-T1 [4]): 50 nM |
| O=[N+]([O-])c1ccc(OCC2CO2)cc1 (centres undefined) | – | – | Kina [5]: 0.004 min⁻¹ |
| CC(C)[C@H](NC(=O)OCc1ccccc1)C(=O)NC[C@@H]1O[C@@H]1[C@H](Cc1ccccc1)NC(=O)[C@H](NC(=O)OCc1ccccc1)C(C)C | 0.1 nM | 2.5e+06 M⁻¹ s⁻¹ | CT50 (H9 [6]): >100 µM; IC50 (H9 [7]): 30 nM; CT50 (SUP-T1 [8]): >100 µM; IC50 (SUP-T1 [4]): 30 nM |
| CC(C)[C@H](NC(=O)OCc1ccccc1)C(=O)NC(C)[C@@H]1O[C@@H]1[C@H](Cc1ccccc1)NC(=O)[C@H](NC(=O)OCc1ccccc1)C(C)C (some centres undefined) | 4 nM | 667000 M⁻¹ s⁻¹ | – |
| CC(C)[C@H](NC(=O)OCc1ccccc1)C(=O)N[C@@H](Cc1ccccc1)C1OC1[C@H](Cc1ccccc1)NC(=O)[C@@H](NC(=O)OCc1ccccc1)C(C)C (some centres undefined) | 75 nM | – | – |
| CC(C)(C)NC(=O)[C@@H]1C[C@@H]2CCCC[C@@H]2CN1C[C@@H](O)[C@H](Cc1ccccc1)NC(=O)[C@H](CC(N)=O)NC(=O)c1ccc2ccccc2n1 [SAQUINAVIR] | – | – | IC50 (H9 [3]): 20 nM; IC50 (SUP-T1 [4]): 20 nM |
